Results: patent publication US11174251B2, “Compositions and methods for inhibition of the JAK pathway” (Rigel Pharmaceuticals, Inc., priority 2010, dated 2021)
Where a name gives a salt, the structure may show the parent alone.

Target: T1, JAK3 (Homo sapiens, UniProt P52333)
T1 construct: The Ramos B-cell line was acquired from ATCC (ATCC Catalog No. CRL-1596); host or cells: Ramos B-cell line (human)
T1 sequence (P52333 1-1124): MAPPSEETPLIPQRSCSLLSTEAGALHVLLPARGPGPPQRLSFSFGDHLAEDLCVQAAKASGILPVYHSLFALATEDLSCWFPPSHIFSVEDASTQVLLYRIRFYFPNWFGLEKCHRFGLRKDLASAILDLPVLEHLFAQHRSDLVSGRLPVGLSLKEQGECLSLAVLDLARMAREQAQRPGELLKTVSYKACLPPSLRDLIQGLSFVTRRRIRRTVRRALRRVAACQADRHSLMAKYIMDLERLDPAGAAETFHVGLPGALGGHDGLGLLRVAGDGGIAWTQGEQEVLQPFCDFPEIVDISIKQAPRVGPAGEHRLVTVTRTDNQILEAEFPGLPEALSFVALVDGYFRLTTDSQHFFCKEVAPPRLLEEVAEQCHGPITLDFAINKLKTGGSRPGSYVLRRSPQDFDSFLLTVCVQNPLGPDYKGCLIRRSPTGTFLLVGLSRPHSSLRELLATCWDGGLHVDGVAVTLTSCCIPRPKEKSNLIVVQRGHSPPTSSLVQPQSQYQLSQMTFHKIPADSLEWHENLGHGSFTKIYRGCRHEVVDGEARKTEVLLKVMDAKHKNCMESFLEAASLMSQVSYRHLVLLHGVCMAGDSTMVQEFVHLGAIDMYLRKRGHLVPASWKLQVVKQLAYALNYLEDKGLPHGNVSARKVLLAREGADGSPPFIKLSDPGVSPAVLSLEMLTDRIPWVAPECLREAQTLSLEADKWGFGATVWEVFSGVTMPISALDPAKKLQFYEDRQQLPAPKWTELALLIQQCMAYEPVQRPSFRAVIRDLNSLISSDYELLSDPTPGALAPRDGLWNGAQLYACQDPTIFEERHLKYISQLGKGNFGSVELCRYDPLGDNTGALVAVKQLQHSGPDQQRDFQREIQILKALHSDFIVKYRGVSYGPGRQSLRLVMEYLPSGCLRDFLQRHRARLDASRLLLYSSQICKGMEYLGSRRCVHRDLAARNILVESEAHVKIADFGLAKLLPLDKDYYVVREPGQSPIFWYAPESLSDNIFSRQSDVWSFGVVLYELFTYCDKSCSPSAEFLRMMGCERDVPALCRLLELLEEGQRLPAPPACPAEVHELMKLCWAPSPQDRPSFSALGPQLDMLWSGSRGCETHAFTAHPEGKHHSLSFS
Assay: Assay for CD23 expression on Ramos B-cells stimulated by IL-4 (Table IV: ability to inhibit JAK3 activity)
Type: cell-based
Conditions: tested under conditions described in Example 3 (so in the source)
In short: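 Human Ramos B cells in RPMI with 5% serum, pre-incubated 1 h at 37 °C with compound or DMSO, then stimulated with IL-4 (final 50 units/mL) for 20–24 h. Surface CD23 upregulation measured by FACS staining as readout of JAK1/JAK3–Stat-6 signalling.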

IC50 [nM]	SMILES
< 500	COc1cc(Nc2ncc(C)c(Nc3ccc4oc(=O)[nH]c4c3)n2)cc(C)c1F [Compound I-105, 5-(2-(4-fluoro-3-methoxy-5-methylphenylamino)-5-methylpyrimidin-4-ylamino)benzo[d]oxazol-2(3H)-one]
< 500	COc1cc(Nc2ncc(C)c(Nc3cc(F)c4oc(=O)[nH]c4c3)n2)cc(C)c1C [Compound I-111, 5-(2-(3-methoxy-4,5-dimethylphenylamino)-5-methylpyrimidin-4-ylamino)-7-fluorobenzo[d]oxazol-2(3H)-one trifluoroacetate trifluoroacetate salt]
< 500	COc1cc(Nc2ncc(C)c(Nc3ccc4oc(=O)[nH]c4c3)n2)cc(F)c1C [Compound I-120, 5-(2-(3-fluoro-5-methoxy-4-methylphenylamino)-5-methylpyrimidin-4-ylamino)benzo[d]oxazol-2(3H)-one trifluoroacetate salt]
< 500	COc1cc(Nc2ncc(F)c(Nc3ccc4oc(=O)[nH]c4c3)n2)cc(F)c1C [Compound I-121, 5-(5-fluoro-2-(3-fluoro-5-methoxy-4-methylphenylamino)pyrimidin-4-ylamino)benzo[d]oxazol-2(3H)-one trifluoroacetate salt]
500 to 5000	COc1cc(Nc2ncc(C)c(Nc3ccc4oc(=O)[nH]c4c3)n2)c(F)cc1C [Compound I-122, 5-(2-(2-fluoro-5-methoxy-4-methylphenylamino)-5-methylpyrimidin-4-ylamino)benzo[d]oxazol-2(3H)-one trifluoroacetate salt]
< 500	COc1cc(Nc2ncc(C)c(Nc3ccc4oc(=O)[nH]c4c3)n2)cc(C)c1Cl [Compound I-124, 5-(2-(4-chloro-3-methoxy-5-methylphenylamino)-5-methylpyrimidin-4-ylamino)benzo[d]oxazol-2(3H)-one trifluoroacetate salt]
< 500	COc1cc(Nc2ncc(C)c(Nc3ccc4oc(=O)n(C)c4c3)n2)cc(C)c1C [Compound I-125, 5-(2-(3-methoxy-4,5-dimethylphenylamino)-5-methylpyrimidin-4-ylamino)-3-methylbenzo[d]oxazol-2(3H)-one trifluoroacetate salt]
< 500	COc1cc(Nc2ncc(C)c(Nc3ccc4oc(=O)n(C)c4c3)n2)cc(C)c1F [Compound I-127, 5-(2-(4-fluoro-3-methoxy-5-methylphenylamino)-5-methylpyrimidin-4-ylamino)-3-methylbenzo[d]oxazol-2(3H)-one trifluoroacetate salt]
< 500	CCOC(=O)c1c(C)cc(Nc2ncc(C)c(Nc3ccc4oc(=O)[nH]c4c3)n2)cc1OC [Compound I-128, ethyl 4-(4-(2,3-dihydro-2-oxobenzo[d]oxazol-5-ylamino)-5-methylpyrimidin-2-ylamino)-2-methoxy-6-methylbenzoate]
< 500	COc1cc(Nc2ncc(C)c(Nc3ccc4oc(=O)[nH]c4c3)n2)cc(C)c1CO [Compound I-129, 4-(4-(2,3-dihydro-2-oxobenzo[d]oxazol-5-ylamino)-5-methylpyrimidin-2-ylamino)-2-methoxy-6-methylbenzyl alcohol trifluoroacetate salt]
< 500	Cc1cnc(Nc2cc(C)c(C)c(C)c2)nc1Nc1ccc2oc(=O)[nH]c2c1 [Compound I-131, 5-methyl-N4-(2-oxo-2,3-dihydro-1,3-benzoxazol-5-yl)-N2-(3,4,5-trimethyl)phenyl-2,4-pyrimidinediamine benzenesulfonic acid salt]
< 500	COC(=O)c1c(C)cc(Nc2ncc(C)c(Nc3ccc4oc(=O)[nH]c4c3)n2)cc1C [Compound I-138, N2-(3,5-dimethyl-4-methoxycarbonyl)phenyl-5-methyl-N4-(2-oxo-2,3-dihydro-1,3-benzoxazol-5-yl)-2,4-pyrimidinediamine]

More lines, now with the values behind:

SMILES	IC50 [nM]
COc1cc(Nc2ncc(C)c(Nc3cc(C)c4oc(=O)[nH]c4c3)n2)cc(C)c1C [Compound I-109, 5-(2-(3-methoxy-4,5-dimethylphenylamino)-5-methylpyrimidin-4-ylamino)-7-methylbenzo[d]oxazol-2(3H)-one trifluoroacetate trifluoroacetate salt]	< 500
COc1cc(Nc2ncc(F)c(Nc3cc(C)c4oc(=O)[nH]c4c3)n2)cc(C)c1C [Compound I-110, 5-(5-fluoro-2-(3-methoxy-4,5-dimethylphenylamino)pyrimidin-4-ylamino)-7-methylbenzo[d]oxazol-2(3H)-one trifluoroacetate salt]	< 500
COc1cc(Nc2ncc(F)c(Nc3cc(F)c4oc(=O)[nH]c4c3)n2)cc(C)c1C [Compound I-112, 7-fluoro-5-(5-fluoro-2-(3-methoxy-4,5-dimethylphenylamino)pyrimidin-4-ylamino)benzo[d]oxazol-2(3H)-one trifluoroacetate salt]	< 500
COc1cc(Nc2ncc(C)c(Nc3ccc4oc(=O)n(COP(=O)(O)O)c4c3)n2)cc(C)c1C [Compound I-115, Disodium (5-(2-(3-methoxy-4,5-dimethylphenylamino)-5-methylpyrimidin-4-ylamino)-2-oxobenzo[d]oxazol-3(2H)-yl)methyl phosphate]	500 to 5000
COc1ccc(F)c(Nc2ncc(F)c(Nc3ccc4oc(=O)[nH]c4c3)n2)c1 [Compound I-119, 5-(5-fluoro-2-(2-fluoro-5-methoxyphenylamino)pyrimidin-4-ylamino)benzo[d]oxazol-2(3H)-one]	5000 to 10000
COc1cc(Nc2ncc(F)c(Nc3ccc4oc(=O)[nH]c4c3)n2)c(F)cc1C [Compound I-123, 5-(5-fluoro-2-(2-fluoro-5-methoxy-4-methylphenylamino)pyrimidin-4-ylamino)benzo[d]oxazol-2(3H)-one trifluoroacetate salt]	5000 to 10000
Cc1cnc(Nc2cc(C)c(C)c(C)c2)nc1Nc1ccc2oc(=O)n(C)c2c1 [Compound I-126, 5-(2-(3,4,5-trimethylphenylamino)-5-methylpyrimidin-4-ylamino)-3-methylbenzo[d]oxazol-2(3H)-one trifluoroacetate salt]	< 500
Cc1cnc(Nc2cc(C)c(C)c(C)c2)nc1Nc1ccc2oc(=O)n(COP(=O)(O)O)c2c1 [Compound I-130, 5-methyl-N4-[3-(phosphonooxy)methyl-2-oxo-2,3-dihydro-1,3-benzoxazol-5-yl]-N2-(3,4,5-trimethyl)phenyl-2,4-pyrimidinediamine arginine salt]	< 500
Cc1cnc(Nc2cc(C)c(C)c(C)c2)nc1Nc1ccc2oc(=O)n(COP(=O)(O)O)c2c1 [Compound I-132, 5-methyl-N4-[3-(phosphonooxy)methyl-2-oxo-2,3-dihydro-1,3-benzoxazol-5-yl]-N2-(3,4,5-trimethyl)phenyl-2,4-pyrimidinediamine Tris salt]	< 500
Cc1cnc(Nc2cc(C)c(C)c(C)c2)nc1Nc1ccc2oc(=O)n(COP(=O)(O)OCCN(C)C)c2c1 [Compound I-133, N4-{3-[2-(N,N-dimethylamino)ethoxy]phosphinyloxymethyl-2-oxo-2,3-dihydro-1,3-benzoxazol-5-yl}-5-methyl-N2-(3,4,5-trimethyl)phenyl-2,4-pyrimidinediamine]	5000 to 10000
Cc1cnc(Nc2cc(C)c(C)c(C)c2)nc1Nc1ccc2oc(=O)n(COP(=O)(OCCN(C)C)OCCN(C)C)c2c1 [Compound I-134, N4-{3-bis[2-(N,N-dimethylamino)ethoxy]phosphinyloxymethyl-2-oxo-2,3-dihydro-1,3-benzoxazol-5-yl}-5-methyl-N2-(3,4,5-trimethyl)phenyl-2,4-pyrimidinediamine]	> 10000
Cc1cnc(Nc2cc(C)c(C)c(C)c2)nc1Nc1ccc2oc(=O)n(COP(=O)(O)O)c2c1 [Compound I-136, 5-methyl-N4-[3-(phosphonooxy)methyl-2-oxo-2,3-dihydro-1,3-benzoxazol-5-yl]-N2-(3,4,5-trimethyl)phenyl-2,4-pyrimidinediamine dipotassium salt]	500 to 5000
CCN(c1cc(C)c(C)c(C)c1)c1ncc(C)c(Nc2ccc3oc(=O)[nH]c3c2)n1 [Compound I-139, N2-ethyl-N2-(3,4,5-trimethyl)phenyl-5-methyl-N4-(2-oxo-2,3-dihydro-1,3-benzoxazol-5-yl)-2,4-pyrimidinediamine]	> 10000
